Experiments:
[1] = tested on: larvae of click beetles of the genus Agriotes, in particular Agriotes sordidus; assay: Maize field trial, St Hilaire: emerged plants counted after bait granules incorporated in the sowing row; format: in vivo; details: 22 days after sowing, 2 mm maize-meal granules with 0.25% fipronil, untreated 19
From the text: (§1) A surface of 0.1 ha is sown with maize at the rate of about 8000 untreated seeds. This surface is divided into 40-m^2 plots. At the same time as the sowing, there are incorporated into the soil, in the sowing row, 2 mm granules containing a composition consisting of: The quantities of granules thus spread vary from 2.5 to 10 kg per hectare. Untreated plots are kept to serve as control and to verify the extent of the damage by the insects. Likewise, the plots will be treated with a commercial insecticide which is reputed effective and called reference. Each modality is repeated four times. Approximately 20 days after sowing, the maize plants which have emerged are counted. The soil is dug out and scraped in order to capture and identify the insects responsible for the damage; a large presence of larvae of click beetles of the genus Agriotes, in particular Agriotes sordidus, is observed for the untreated control.

[2] = tested on: larvae of click beetles of the genus Agriotes, in particular Agriotes lineatus; assay: Maize field trial, Beaufort: emerged plants counted after bait granules incorporated in the sowing row; format: in vivo; details: 50 days after sowing, 2 mm maize-meal granules with 0.25% fipronil, untreated 30
From the text: as §1, with “1” for “0.1”, “98, 100” for “8000”, “27-m^2” for “40-m^2”, “50” for “20”, “lineatus.” for “sordidus, is observed for the untreated control.”

[3] = dose of fipronil 6 g per hectare
[4] = dose of fipronil 50 g per hectare

N#Cc1nn(-c2c(Cl)cc(C(F)(F)F)cc2Cl)c(N)c1[S+]([O-])C(F)(F)F (stereo not shown) [fipronil, 5-amino-3-cyano-1-[2,6-di-chloro-4-(trifluoromethyl)phenyl]-4-[(trifluoromethyl)-sulphinyl]-1H-pyrazole]
plants observed per 10 meters of furrow [1, 3]: 49 plants per 10 meters of furrow | plants observed per 10 meters of furrow [1, 4]: 49 plants per 10 meters of furrow | plants observed per 10 meters of furrow [2, 3]: 40 plants per 10 meters of furrow | plants observed per 10 meters of furrow [2, 4]: 49.8 plants per 10 meters of furrow

Source: patent US6939830B1, “Method for fighting soil insects with phenyl-pyrazoles” (Basf Agro B.V. Arnhem (NL) - Wadenswil Branch, priority 1999, dated 2005)
